Source: patent US8563732B2, “Oxyimino compounds and the use thereof” (Shionogi & Co., Ltd., priority 2007, dated 2013)

Experiments:
[1] = target: T1, L-type calcium channel (LTCC) (Rattus norvegicus, UniProt P22002); assay: FLIPR calcium mobilization assay for L-type calcium channel; type: cell-based; conditions: calcium mobilization in vitro assay; HEK293 cells expressing recombinant rat LTCC subunits (α1c, α2δ, β1), 90 mM KCl
T1 construct: The 6.5 kb cDNA encoding the L-type calcium channel α1c subunit was cloned by PCR amplification from rat heart cDNA; expressed in transfected cells
Description: Recombinant human embryonal kidney cells (HEK293, ATCC) stably transfected with either N-type calcium channel (NTCC) subunits (α1b, α2δ, and (β3) or L-type calcium channel (LTCC) subunits (α1c, α2δ, and β1) were routinely cultured in growth medium consisting of Dulbecco's Modified Eagles Medium containing 10% FBS, 100 U/mL penicillin, 100 μg/mL streptomycin, 4 mM L-glutamine, 500 μg/mL geneticin (G418), 20 μg/mL Blasticidin S (InVivogen, San Diego, Calif.) and 500 μg/mL zeocin (InVivogen).
FLIPR Calcium Mobilization Assay for L-type Calcium Channel. One day prior to performing this assay, HEK293 cells stably expressing recombinant rat L-type calcium channel (LTCC) subunits (α1c, α2δ, and β1) were trypsinized, then seeded on poly-D-lysine-coated 96-well clear-bottom black plates (Becton Dickinson, Franklin Lakes, N.J.) at 75,000 cells/well. On the day of the assay, the plates were washed with LTCC wash buffer (127 mM NaCl, 2 mM MgCl2, 700 μM NaH2PO4, 5 mM CaCl2, 5 mM NaHCO3, 8 mM HEPES, 10 mM glucose, pH 7.4), then loaded with 0.1 mL of LTCC wash buffer containing Fluo-4 (3 μM final concentration, Molecular Probes, Eugene, Oreg.). After 1 hour, the cells were washed with 0.1 mL LTCC wash buffer and resuspended in 0.05 mL LTCC assay buffer (same composition as LTCC wash buffer). Plates were then transferred to a FLIPR^96 for assay. The FLIPR measured basal Fluo-4 fluorescence for 15 seconds, then added 0.05 mL of each compound tested diluted in LTCC assay buffer at final concentrations ranging from about 846 pM to about 17 μM. Fluo-4 fluorescence was then measured for 5 minutes. 0.1 mL KCl agonist dissolved in LTCC assay buffer was then added to the cells to produce a final concentration of 90 mM KCl, and fluorescence was measured for another 45 seconds. Data were collected over the entire time course and analyzed using Excel, Graph Pad Prism, or an in-house regression analysis software.

[2] = target: T2, N-type calcium channel (NTCC) (Homo sapiens, UniProt Q00975); assay: FLIPR calcium mobilization assay for N-type calcium channel; type: cell-based; conditions: calcium mobilization in vitro assay; differentiated IMR32 cells, 5 μM nitrendipine, 90 mM KCl
T2 construct: host or cells: IMR32 cells, differentiated with dibutyryl cAMP and bromodeoxyuridine
Description: Cell maintenance and differentiation. Unless noted otherwise, cell culture reagents were purchased from Mediatech of Herndon, Md. IMR32 cells (American Type Culture Collection, ATCC, Manassas, Va.) were routinely cultured in growth medium consisting of minimum essential medium containing 10% fetal bovine serum (FBS, Hyclone, Logan, Utah), 100 U/mL penicillin, 100 μg/mL streptomycin, 2 mM L-glutamine, 1 mM sodium pyruvate, and 1×MEM non-essential amino acids. 80-90% confluent flasks of cells were differentiated using the following differentiation medium: Growth medium plus 1 mM dibutyryl cyclic AMP (Sigma, St. Louis, Mo.), and 2.5 μM bromodeoxyuridine (Sigma). Cells were differentiated for 8 days by replacing differentiation medium every 2-3 days.
FLIPR Calcium Mobilization Assay for N-type Calcium Channel. One day prior to performing this assay, differentiated IMR32 cells were treated with 1× CellStripper, and seeded on poly-D-lysine-coated 96-well clear-bottom black plates (Becton Dickinson, Franklin Lakes, N.J.) at 200,000 cells/well. […] Plates were then transferred to a Fluorimetric Imaging Plate Reader (FLIPR^96, Molecular Devices, Inc., Sunnyvale, Calif.) for assay. The FLIPR measured basal Fluo-4 fluorescence for 315 seconds (i.e., 5 minutes and 15 seconds), then added 0.1 mL KCl agonist dissolved in IMR32 buffer and measured fluorescence for another 45 seconds. Final test compound concentrations on the cells after FLIPR read ranged from about 846 pM to about 17 μM, final nitrendipine concentration was 5 μM, and final KCl concentration was 90 mM. Data were collected over the entire time course and analyzed using Excel, Graph Pad Prism (version 3.02, Graph Pad, San Diego, Calif.), or an in-house non-linear regression analysis software.

T2 sequence (Q00975 whole entry): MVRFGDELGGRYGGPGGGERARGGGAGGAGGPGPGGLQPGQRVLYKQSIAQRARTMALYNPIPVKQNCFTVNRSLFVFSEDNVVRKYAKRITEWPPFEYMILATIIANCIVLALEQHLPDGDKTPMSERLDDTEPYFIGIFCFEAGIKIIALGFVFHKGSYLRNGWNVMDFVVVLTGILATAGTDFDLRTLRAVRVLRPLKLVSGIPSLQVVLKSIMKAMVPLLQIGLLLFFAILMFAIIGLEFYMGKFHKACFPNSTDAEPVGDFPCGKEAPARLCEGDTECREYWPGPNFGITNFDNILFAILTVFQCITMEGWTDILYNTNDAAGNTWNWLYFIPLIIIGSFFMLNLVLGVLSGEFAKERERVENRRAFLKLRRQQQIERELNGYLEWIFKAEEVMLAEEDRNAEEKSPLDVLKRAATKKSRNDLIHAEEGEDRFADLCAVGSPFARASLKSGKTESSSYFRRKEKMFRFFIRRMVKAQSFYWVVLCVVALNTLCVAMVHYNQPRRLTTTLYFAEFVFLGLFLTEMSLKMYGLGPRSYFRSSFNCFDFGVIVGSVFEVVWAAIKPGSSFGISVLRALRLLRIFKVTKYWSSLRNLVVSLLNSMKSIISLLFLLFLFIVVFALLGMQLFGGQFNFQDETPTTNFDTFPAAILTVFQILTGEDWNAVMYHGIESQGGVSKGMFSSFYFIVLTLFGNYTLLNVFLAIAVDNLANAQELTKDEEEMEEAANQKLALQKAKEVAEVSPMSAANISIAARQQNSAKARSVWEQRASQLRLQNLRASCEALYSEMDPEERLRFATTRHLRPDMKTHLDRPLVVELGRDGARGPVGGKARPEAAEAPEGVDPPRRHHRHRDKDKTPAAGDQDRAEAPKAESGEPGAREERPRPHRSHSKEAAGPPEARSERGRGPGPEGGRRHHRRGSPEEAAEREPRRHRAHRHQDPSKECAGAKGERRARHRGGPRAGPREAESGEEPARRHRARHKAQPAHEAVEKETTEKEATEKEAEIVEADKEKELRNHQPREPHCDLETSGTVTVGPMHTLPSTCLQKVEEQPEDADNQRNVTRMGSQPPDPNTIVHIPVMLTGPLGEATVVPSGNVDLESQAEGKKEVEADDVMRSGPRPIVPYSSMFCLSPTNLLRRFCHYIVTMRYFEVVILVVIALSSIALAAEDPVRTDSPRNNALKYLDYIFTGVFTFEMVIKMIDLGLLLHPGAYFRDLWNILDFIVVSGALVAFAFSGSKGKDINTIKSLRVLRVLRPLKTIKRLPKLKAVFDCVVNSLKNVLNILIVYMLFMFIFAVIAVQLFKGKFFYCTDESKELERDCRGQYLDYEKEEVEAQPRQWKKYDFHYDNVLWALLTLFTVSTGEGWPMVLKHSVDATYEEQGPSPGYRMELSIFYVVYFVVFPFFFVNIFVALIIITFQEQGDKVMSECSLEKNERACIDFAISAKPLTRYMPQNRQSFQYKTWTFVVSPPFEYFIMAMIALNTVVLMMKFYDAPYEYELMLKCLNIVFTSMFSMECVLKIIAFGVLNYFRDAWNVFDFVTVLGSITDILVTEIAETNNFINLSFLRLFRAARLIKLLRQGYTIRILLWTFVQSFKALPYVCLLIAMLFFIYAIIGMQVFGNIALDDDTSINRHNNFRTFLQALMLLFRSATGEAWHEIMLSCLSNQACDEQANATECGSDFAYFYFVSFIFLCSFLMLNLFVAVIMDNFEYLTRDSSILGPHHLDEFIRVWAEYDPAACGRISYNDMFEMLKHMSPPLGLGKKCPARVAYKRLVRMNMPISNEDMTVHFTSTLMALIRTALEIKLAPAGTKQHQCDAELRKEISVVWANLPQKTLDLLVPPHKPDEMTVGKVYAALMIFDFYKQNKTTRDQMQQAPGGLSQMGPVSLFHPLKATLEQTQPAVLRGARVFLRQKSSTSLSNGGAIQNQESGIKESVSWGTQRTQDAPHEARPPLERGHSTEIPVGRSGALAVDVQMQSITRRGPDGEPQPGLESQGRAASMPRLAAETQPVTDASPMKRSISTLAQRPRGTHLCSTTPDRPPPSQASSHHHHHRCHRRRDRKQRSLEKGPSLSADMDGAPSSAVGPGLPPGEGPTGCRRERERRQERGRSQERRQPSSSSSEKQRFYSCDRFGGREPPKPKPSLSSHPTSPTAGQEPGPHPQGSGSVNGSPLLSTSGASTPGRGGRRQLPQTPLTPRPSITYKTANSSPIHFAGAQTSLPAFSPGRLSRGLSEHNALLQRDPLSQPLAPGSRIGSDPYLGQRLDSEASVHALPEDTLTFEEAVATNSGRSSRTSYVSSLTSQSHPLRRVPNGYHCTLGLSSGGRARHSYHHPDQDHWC
T2 sequence (P54289 25-956 partner limits assumed): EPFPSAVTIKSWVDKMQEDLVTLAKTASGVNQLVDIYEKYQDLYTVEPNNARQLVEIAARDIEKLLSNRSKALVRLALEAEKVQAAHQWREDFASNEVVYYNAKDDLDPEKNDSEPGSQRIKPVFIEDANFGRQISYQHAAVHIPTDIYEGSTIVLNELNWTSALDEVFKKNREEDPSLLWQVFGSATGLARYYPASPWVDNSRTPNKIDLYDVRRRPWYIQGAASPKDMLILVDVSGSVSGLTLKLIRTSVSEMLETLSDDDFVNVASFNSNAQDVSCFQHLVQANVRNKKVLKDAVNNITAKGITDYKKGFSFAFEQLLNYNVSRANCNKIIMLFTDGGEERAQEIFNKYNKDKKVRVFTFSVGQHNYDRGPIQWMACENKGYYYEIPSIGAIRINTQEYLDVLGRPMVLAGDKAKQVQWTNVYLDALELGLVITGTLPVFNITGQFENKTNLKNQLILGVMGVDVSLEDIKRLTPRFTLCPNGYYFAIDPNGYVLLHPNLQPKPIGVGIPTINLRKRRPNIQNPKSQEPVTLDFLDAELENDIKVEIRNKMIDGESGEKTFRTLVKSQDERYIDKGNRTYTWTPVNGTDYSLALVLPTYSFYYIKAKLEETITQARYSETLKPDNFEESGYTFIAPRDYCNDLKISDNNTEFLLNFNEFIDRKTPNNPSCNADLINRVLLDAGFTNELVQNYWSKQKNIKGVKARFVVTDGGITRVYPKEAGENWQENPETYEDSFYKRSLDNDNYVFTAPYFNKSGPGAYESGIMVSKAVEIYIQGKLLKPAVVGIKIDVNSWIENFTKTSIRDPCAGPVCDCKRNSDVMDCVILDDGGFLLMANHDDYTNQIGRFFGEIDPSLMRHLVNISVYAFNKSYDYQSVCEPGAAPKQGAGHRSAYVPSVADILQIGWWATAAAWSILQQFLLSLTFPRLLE
T2 sequence (P54289 957-1103 partner limits assumed): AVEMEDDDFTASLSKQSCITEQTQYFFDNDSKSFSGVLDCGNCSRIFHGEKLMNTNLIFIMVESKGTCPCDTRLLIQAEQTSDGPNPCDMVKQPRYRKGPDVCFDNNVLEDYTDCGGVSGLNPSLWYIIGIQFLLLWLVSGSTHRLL
T2 sequence (P54284 whole entry partner): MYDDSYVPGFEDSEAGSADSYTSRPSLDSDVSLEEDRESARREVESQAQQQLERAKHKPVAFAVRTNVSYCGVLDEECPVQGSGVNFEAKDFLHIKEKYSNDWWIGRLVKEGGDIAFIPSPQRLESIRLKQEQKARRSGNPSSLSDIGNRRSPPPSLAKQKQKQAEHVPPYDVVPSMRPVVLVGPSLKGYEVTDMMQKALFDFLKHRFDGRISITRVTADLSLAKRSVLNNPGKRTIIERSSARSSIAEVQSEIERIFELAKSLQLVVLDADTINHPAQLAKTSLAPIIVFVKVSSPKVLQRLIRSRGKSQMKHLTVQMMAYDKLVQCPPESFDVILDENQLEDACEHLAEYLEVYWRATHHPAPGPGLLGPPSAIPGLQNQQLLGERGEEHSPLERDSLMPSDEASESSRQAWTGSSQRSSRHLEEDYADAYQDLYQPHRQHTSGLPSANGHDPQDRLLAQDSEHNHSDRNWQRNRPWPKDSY

IC50 [1] [nM] | IC50 [2] [nM] | Structure (SMILES)
> 20000 | 200 | N#Cc1cccc(C(=NOC2CCN(S(=O)(=O)c3ccc(OC(F)(F)F)cc3)CC2)C2CC2)c1 (racemic) [Example 2, 3-(Cyclopropyl(1-(4-(trifluoromethoxy)phenylsulfonyl)piperidin-4-yloxyimino)methyl)benzonitrile]
> 20000 | 100 | O=S(=O)(c1ccc(OC(F)(F)F)cc1)N1CCC(ON=C(c2ccc(F)cc2)c2ccc(F)cc2)CC1 [Example 3, Bis(4-fluorophenyl)methanone O-1-(4-(trifluoromethoxy)phenylsulfonyl)piperidin-4-yl oxime]
> 20000 | 180 | C/C(=N\OC1CCN(S(=O)(=O)c2ccc(OC(F)(F)F)cc2)CC1)c1cccc(C#N)c1 [Example 4, (E)-3-(1-(1-(4-(Trifluoromethoxy)phenylsulfonyl)piperidin-4-yloxyimino)ethyl)benzonitrile]
